Laboratory results taken from patent US20110195420A1, “ESTROGEN AND ANTI-ESTROGEN MARKER GENES” (Merck Patent Gesellschaft, priority 2009, published 2011).
“Also recorded” adds a separate entry of the source. Read-outs that look alike come from different tables or passages of the source.

Experiments:
Ishikawa plus cells = test: Illumina global gene expression profiling in Ishikawa plus cells after 24 h EAC treatment (ANOVA, correlation, K-Means clustering); assay type: cell-based, human
Method: Cells were routinely maintained in DMEM/F12 with L-Glutamine and 15 mM Hepes supplemented with 10% (v/v) FBS, 1% (v/v) penicillin (10 kU/ml)-streptomycin (10 mg/ml) solution, 0.1% (v/v) Gentamicin (50 mg/ml) and 1 mM sodium pyruvate at 37° C. and 5% CO2 in culture flasks. 5×10^5 cells were seeded onto 6-well plates in phenol-red free DMEM/F12 with L-Glutamine and 15 mM Hepes containing 10% (v/v) dextran-coated charcoal treated FBS, sodium pyruvate and antibiotics.
All experiments were performed three times with cells of passages 3-25.
After a 24 h treatment period cells were rinsed with PBS (Gibco Invitrogen, Karlsruhe, Germany), harvested and total RNA was extracted using the RNeasy Mini Kit (QIAGEN, Hilden, Germany) as described by the manufacturer, including the QIAshredder spin column procedure and on-column RNase-free DNase digestion. RNA was eluted with 40 μl of RNA-Storage solution (Ambion, Darmstadt, Germany). RNA quality control and quantification was determined using a NanoDrop® spectrophotometer (Kisker, Steinfurt, Germany) and 2100 Agilent Bio-Analyzer (Agilent Technologies, Waldbronn, Germany). Only RNA with a quality ratio A260/A280 between 1.9 and 2.1 and no evidence of peak degradation (18s/28s) was used.
Gene expression analysis was executed using Illumina Sentrix® HumanRef-8 V2 BeadChip Arrays (Illumina Inc., San Diego, Calif., USA) allowing the analysis of ˜23,000 transcripts. […] Instead of column cleanup, the bead-based Agencourt® RNAcIean™ system (Beckman Coulter, Krefeld, Germany) was applied to purify cDNA and cRNA. cRNA quantity was measured spectrophotometrically (NanoDrop®) and the 2100 Agilent Bio-Analyzer was used for quality assessment.
Seven hundred fifty nanograms of amplified biotinylated cRNA were hybridized onto the Illumina Sentrix® BeadChip in a Hybridization Cartridge under humidified conditions for 20 h at 58° C. (Hybridization oven, Illumina Inc., San Diego, Calif., USA). The chips were then washed, stained for 10 minutes with 1 μg/ml streptavidin-conjugated Cy3 (Amersham Biosciences, Buckinghamshire, UK) and finally dried by centrifugation according to the protocol provided.
Data were uploaded into Genedata's Expressionist® Analyst software (Genedata AG, Basel, Switzerland) for data normalization and statistical analysis. Data were normalized using Lowess (Locally Weighted Linear Regression) to offset non-biological differences (systematic variation) between the samples and arrays. After normalization fold-regulations for each individual compound treatment were calculated. The global gene set was reduced by filtering any signal intensity<200 (background level) to reduce error rates of multiple testing during further analysis.
Thus, only genes with a p-value and BH-Q-value less than 0.01 were accepted as significant.
For selection of characteristic estrogenicity marker genes, ANOVA was applied to the tested EACs against the vehicle controls. Only genes having a p-value and BH-Q-value less than 0.01 were accepted as significant.

ERα = molecular target: T1, ERα (Homo sapiens, UniProt P03372); details: consensus ERE reporter; used as low dose level; read-out: compound concentration causing a half maximal activation of the reporter gene (EC50); cited from earlier work
T1 sequence (P03372 1-595): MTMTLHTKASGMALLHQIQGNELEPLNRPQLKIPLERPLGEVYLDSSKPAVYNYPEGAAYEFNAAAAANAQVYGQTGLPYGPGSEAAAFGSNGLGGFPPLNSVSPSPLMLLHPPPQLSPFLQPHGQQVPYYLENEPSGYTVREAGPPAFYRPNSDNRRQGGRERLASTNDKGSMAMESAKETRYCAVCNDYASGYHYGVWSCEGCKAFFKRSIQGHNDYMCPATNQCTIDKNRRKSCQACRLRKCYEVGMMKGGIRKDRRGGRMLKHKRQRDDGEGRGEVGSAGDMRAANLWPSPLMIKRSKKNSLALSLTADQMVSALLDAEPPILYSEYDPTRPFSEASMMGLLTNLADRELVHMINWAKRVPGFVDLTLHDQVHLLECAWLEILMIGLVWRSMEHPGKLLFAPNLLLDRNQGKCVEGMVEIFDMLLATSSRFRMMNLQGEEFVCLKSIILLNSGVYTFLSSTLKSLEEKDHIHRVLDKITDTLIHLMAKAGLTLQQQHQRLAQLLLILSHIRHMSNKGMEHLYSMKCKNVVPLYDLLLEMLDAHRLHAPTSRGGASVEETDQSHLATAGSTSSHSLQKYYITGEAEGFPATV

[1] = Pearson correlation on significantly regulated genes, 24 h, dose not specified
[2] = clusters 3 and 4, same direction as ICI, 24 h
[3] = K-Means clustering, p-value/BH-Q-value<0.01, 24 h
[4] = Pearson correlation, 24 h, high dose
[5] = Pearson correlation, 24 h, low dose

## CC(C)(c1ccc(O)cc1)c1ccc(O)cc1 [BPA, Bisphenol A]
Ishikawa plus cells; 24 h
  share of ER-dependent regulated genes (clusters 1 and 2) also regulated in the same direction after DES treatment: Eighty
Ishikawa plus cells; [1]
  correlation of gene expression compared with DES: low positive correlation
  correlation of gene expression to ICI: high positive correlation; also recorded: high correlations; also recorded: good correlation
Ishikawa plus cells; [2]
  anti-estrogen-like gene regulation, share of significantly regulated genes: 86%

## Clc1ccc(C(c2ccccc2Cl)C(Cl)(Cl)Cl)cc1 (stereo not drawn) [DDT, o,p′-Dichlordiphenyltrichlorethane]
Ishikawa plus cells
  anti-estrogen-like gene regulation, share of significantly regulated genes: 85%
  correlation of gene expression compared with DES: low positive correlation
  correlation of gene expression to ICI: high positive correlation; also recorded: high correlations; also recorded: good correlation
  share of ER-dependent regulated genes (clusters 1 and 2) also regulated in the same direction after DES treatment: 72%

## CC/C(=C(/CC)c1ccc(O)cc1)c1ccc(O)cc1 [DES, Diethylstilbestrol]
Ishikawa plus cells; 24 h, dose not specified
  kind of regulated genes identified by K-Means clustering: only genes with ER-dependent expression profiles; also recorded: Only genes with ER-dependent regulation profiles
Ishikawa plus cells; [3]
  number of down-regulated genes with ER-dependent expression profiles: 62
  number of up-regulated genes with ER-dependent expression profiles: 193
Ishikawa plus cells; [1]
  correlation of gene expression to ICI: negatively correlated

## O=c1c(-c2ccc(O)cc2)coc2cc(O)cc(O)c12 [GEN, Genistein]
Ishikawa plus cells; 24 h
  doses at which anti-estrogenic gene regulation was displayed: only at low doses
  share of ER-dependent regulated genes (clusters 1 and 2) also regulated in the same direction after DES treatment: Approximately 66%
Ishikawa plus cells; [1]
  correlation of gene expression to ICI: good correlation
Ishikawa plus cells; [4]
  correlation of gene expression compared with DES: medium to high correlations
  similarity of gene expression with ICI: little similarity
Ishikawa plus cells; [5]
  correlation of gene expression compared with DES: low positive correlation
  correlation of gene expression to ICI: high positive correlation; also recorded: high correlations
Ishikawa plus cells; high dose, 24 h
  kind of regulated genes identified by K-Means clustering: only ER-dependent regulated genes were identified; also recorded: Only genes with ER-dependent regulation profiles
Ishikawa plus cells; low dose, 24 h
  share of low dose deregulated genes similarly regulated by ICI (clusters 5 and 6): approximately 86%

## C[C@]12CC[C@@H]3c4ccc(O)cc4C[C@@H](CCCCCCCCC[S+]([O-])CCCC(F)(F)C(F)(F)F)[C@H]3[C@@H]1CC[C@@H]2O (stereo partly drawn) [ICI, ICI 182,780]
Ishikawa plus cells; ICI 100 nM alone and ICI/compound combination, 24 h
  regulation of the 87 marker genes: Most genes showed a weaker regulation score or were diametrically regulated

## Oc1ccc(C=Cc2cc(O)cc(O)c2)cc1 [RESV, Resveratrol]
Ishikawa plus cells; 24 h
  estrogen-like gene expression, share of significantly regulated genes: 48%
  portion of the putative estrogenic marker genes regulated unidirectional to ICI: one third
  share of ER-dependent regulated genes (clusters 1 and 2) also regulated in the same direction after DES treatment: 6%
Ishikawa plus cells; [1]
  correlation of gene expression compared with DES: no correlation
  correlation of gene expression to ICI: high positive correlation
Ishikawa plus cells; [2]
  anti-estrogen-like gene regulation, share of significantly regulated genes: 52%
ERα
  EC50: 7.5 µM

## C[C@H]1CCCC(=O)CCC/C=C/c2cc(O)cc(O)c2C(=O)O1 [ZEA, Zearalenone]
Ishikawa plus cells; 24 h
  doses at which anti-estrogenic gene regulation was displayed: only at low doses
  share of ER-dependent regulated genes (clusters 1 and 2) also regulated in the same direction after DES treatment: Approximately 66%
Ishikawa plus cells; [1]
  correlation of gene expression to ICI: good correlation
Ishikawa plus cells; [4]
  correlation of gene expression compared with DES: medium to high correlations
  similarity of gene expression with ICI: little similarity
Ishikawa plus cells; [5]
  correlation of gene expression compared with DES: low positive correlation
  correlation of gene expression to ICI: high positive correlation; also recorded: high correlations
Ishikawa plus cells; high dose, 24 h
  kind of regulated genes identified by K-Means clustering: only ER-dependent regulated genes were identified; also recorded: Only genes with ER-dependent regulation profiles
Ishikawa plus cells; low dose, 24 h
  share of low dose deregulated genes similarly regulated by ICI (clusters 5 and 6): ~91%
ERα
  EC50: 0.0025 µM
